Assay results from patent US10525144B2, “Selective targeting of an anti-inflammatory receptor in human mitochondria and preservation of mitochondrial functions” (THE JOHNS HOPKINS UNIVERSITY, priority 2014, dated 2020).
Ends that are not written are not given here. * marks the point of attachment. 5FAM = O=C1OC2(c3ccc(O)cc3Oc3cc(O)ccc32)c2ccc(C(=O)*)cc21

Tests used:
mitochondrial function = assay: Effect of Losartan on mitochondrial function
Excerpt: (§1) The inventors recently discovered functional mitochondrial Angiotensin receptors (mtAT1R and mtAT2R) that shift to an increased mtAT1R/mtAT2R ratio with aging. One of the protective benefits of Angiotensin (Ang) receptor type 1 (AT1R) blockers, such as Losartan (LOS), arises from its systemic effects on blood pressure and remodelling. […] Therefore, angiotensin receptor blockers such as Losartan have utility beyond hypertension treatment; angiotensin receptor blockers can be used in the treatment of conditions relevant to older adults.

skeletal muscle = assay: Skeletal muscle healing and disuse atrophy in older mice; assay type: in vivo; conditions: high doses
Excerpt: as §1

mitochondria = assay: Confocal fluorescence microscopy of cellular localization of the conjugate in rat cells (FIG. 3); assay type: cell-based
Procedure: FIG. 3 contains confocal fluorescence microscopy images of rat liver cells incubated with MTS1-Ls-5-FAM for 24 hrs.
The MTS1-Ls-5-FAM conjugate was transfected into rat cells and incubated for 24 hours before confocal fluorescence microscopy was performed to ascertain cellular localization. Cells were co-stained with Mitotracker-Red and Hoescht 33342 for the mitochondria and nuclei, respectively.

[1] = tested on: mitochondria of cardiac cells; assay: Co-localization with mitochondria of cardiac cells (FIG. 7); assay type: cell-based
[2] = tested on: mitochondrial membrane potential; assay: Quantification of mitochondrial membrane potential based on TMRE localization in cardiac cells (FIG. 8); assay type: cell-based; conditions: treated vs control, FIG. 8 panels E and F
Excerpt: FIG. 8 consists of panels A-J. Panels A and B are images showing quantification of mitochondrial membrane potential based on TMRE localization in control (panel A) and MTS1-Ls-5-FAM-treated (panel B) cardiac cells. TMRE localizes in the mitochondria, and based on the intensity of the TMRE dye, the mitochondrial membrane potential can be calculated (panel C).

CCCCc1nc(Cl)c(CO)n1Cc1ccc(-c2ccccc2-c2nn[nH]n2)cc1 [LOS, Losartan]
mitochondrial function (mitochondrial function): improved
disuse atrophy (skeletal muscle): prevent disuse atrophy
skeletal muscle healing (skeletal muscle): accelerate skeletal muscle healing

MTS1-Ls-5-FAM (MLRAALSTARRGPRLSRLLCK(5FAM); not fully specified (C-terminus); printed as MLRAALSTARRGPRLSRLLCK(Mtt); also: losartan conjugated, site not given here)
localization of the conjugate with the mitochondria (mitochondria; rat cells, incubated 24 hours, co-stained with Mitotracker-Red and Hoescht 33342): greater than 80%
localization in merged confocal image (mitochondria; rat liver cells incubated 24 hrs, FIG. 3 panel (d)): localization of MTS1-Ls-5-FAM within the mitochondria
co-localization with mitochondria (images) ([1]; FIG. 7 panels A and B): positive co-localization
co-localization with mitochondria by Pearson coefficient ([1]; relative to the scrambled MTS1-Ls-5-FAM, FIG. 7 panel C): significantly more co-localized
co-localization with mitochondria by Mander's coefficient ([1]; relative to the scrambled MTS1-Ls-5-FAM, FIG. 7 panel D): significantly more co-localized
maximum TMRE intensity per pixel [2]: no significant difference
